# Data reported in paper doi:10.1101/2021.04.08.439011v1 (biorxiv, 2021).
# Assays:
# [1] = target: TYK2(JH2domain-pseudokinase) (Homo sapiens, UniProt P29597); settings: 0.1 µM; binder
# [2] = target: RSK4(Kin.Dom.1-N-terminal) (Homo sapiens, UniProt Q9UK32); settings: 0.1 µM; binder
# [3] = target: PFPK5(P. falciparum) (Plasmodium falciparum, UniProt P61075); settings: 1 µM; binder
# [4] = target: RSK4(Kin.Dom.2-C-terminal) (Homo sapiens, UniProt Q9UK32); settings: 0.1 µM; binder
# [5] = target: JAK2(JH1domain-catalytic) (Homo sapiens, UniProt O60674); settings: 0.1 µM; binder
# [6] = target: JAK1(JH1domain-catalytic) (Homo sapiens, UniProt P23458); settings: 0.1 µM; binder
# [7] = target: RSK2(Kin.Dom.1-N-terminal) (Homo sapiens, UniProt P51812); settings: 0.1 µM; binder
# [8] = target: RSK1(Kin.Dom.1-N-terminal) (Homo sapiens, UniProt Q15418); settings: 0.1 µM; binder
# [9] = target: SNRK (Homo sapiens, UniProt Q9NRH2); settings: 1 µM; binder
# [10] = target: TSSK3 (Homo sapiens, UniProt Q96PN8); settings: 1 µM; binder
# [11] = target: HIPK1 (Homo sapiens, UniProt Q86Z02); settings: 1 µM; binder
# [12] = target: NEK4 (Homo sapiens, UniProt P51957); settings: 1 µM; binder
# [13] = target: EGFR(G719C) (Homo sapiens, UniProt P00533, G719C); settings: 1 µM; binder
# [14] = target: AXL (Homo sapiens, UniProt P30530); settings: 1 µM; binder
# [15] = target: CDKL3 (Homo sapiens, UniProt Q8IVW4); settings: 1 µM; binder
# [16] = target: MAPKAPK2 (Homo sapiens, UniProt P49137); settings: 1 µM; binder
# [17] = target: NEK10 (Homo sapiens, UniProt Q6ZWH5); settings: 1 µM; binder
# [18] = target: EPHB4 (Homo sapiens, UniProt P54760); settings: 1 µM; binder
# [19] = target: ERK5 (Homo sapiens, UniProt Q13164); settings: 1 µM; binder
# [20] = target: EGFR (Homo sapiens, UniProt P00533); settings: 1 µM; binder
# [21] = target: ASK2 (Homo sapiens, UniProt O95382); settings: 1 µM; binder
# [22] = target: PIK3CA(M1043I) (Homo sapiens, UniProt P42336, M1043I); settings: 1 µM; binder
# [23] = target: TAOK3 (Homo sapiens, UniProt Q9H2K8); settings: 1 µM; binder
# [24] = target: CAMKK1 (Homo sapiens, UniProt Q8N5S9); settings: 1 µM; binder
# [25] = target: ABL1(E255K) (Homo sapiens, UniProt P00519, E255K); settings: phosphorylated; 1 µM; binder
# [26] = target: EPHA7 (Homo sapiens, UniProt Q15375); settings: 1 µM; binder
# [27] = target: FLT3(R834Q) (Homo sapiens, UniProt P36888, R834Q); settings: 1 µM; binder
# [28] = target: PHKG1 (Homo sapiens, UniProt Q16816); settings: 1 µM; binder
# [29] = target: DSTYK (Homo sapiens, UniProt Q6XUX3); settings: 1 µM; binder
# JAK1(JH1domain-catalytic), sequence (P23458 whole entry): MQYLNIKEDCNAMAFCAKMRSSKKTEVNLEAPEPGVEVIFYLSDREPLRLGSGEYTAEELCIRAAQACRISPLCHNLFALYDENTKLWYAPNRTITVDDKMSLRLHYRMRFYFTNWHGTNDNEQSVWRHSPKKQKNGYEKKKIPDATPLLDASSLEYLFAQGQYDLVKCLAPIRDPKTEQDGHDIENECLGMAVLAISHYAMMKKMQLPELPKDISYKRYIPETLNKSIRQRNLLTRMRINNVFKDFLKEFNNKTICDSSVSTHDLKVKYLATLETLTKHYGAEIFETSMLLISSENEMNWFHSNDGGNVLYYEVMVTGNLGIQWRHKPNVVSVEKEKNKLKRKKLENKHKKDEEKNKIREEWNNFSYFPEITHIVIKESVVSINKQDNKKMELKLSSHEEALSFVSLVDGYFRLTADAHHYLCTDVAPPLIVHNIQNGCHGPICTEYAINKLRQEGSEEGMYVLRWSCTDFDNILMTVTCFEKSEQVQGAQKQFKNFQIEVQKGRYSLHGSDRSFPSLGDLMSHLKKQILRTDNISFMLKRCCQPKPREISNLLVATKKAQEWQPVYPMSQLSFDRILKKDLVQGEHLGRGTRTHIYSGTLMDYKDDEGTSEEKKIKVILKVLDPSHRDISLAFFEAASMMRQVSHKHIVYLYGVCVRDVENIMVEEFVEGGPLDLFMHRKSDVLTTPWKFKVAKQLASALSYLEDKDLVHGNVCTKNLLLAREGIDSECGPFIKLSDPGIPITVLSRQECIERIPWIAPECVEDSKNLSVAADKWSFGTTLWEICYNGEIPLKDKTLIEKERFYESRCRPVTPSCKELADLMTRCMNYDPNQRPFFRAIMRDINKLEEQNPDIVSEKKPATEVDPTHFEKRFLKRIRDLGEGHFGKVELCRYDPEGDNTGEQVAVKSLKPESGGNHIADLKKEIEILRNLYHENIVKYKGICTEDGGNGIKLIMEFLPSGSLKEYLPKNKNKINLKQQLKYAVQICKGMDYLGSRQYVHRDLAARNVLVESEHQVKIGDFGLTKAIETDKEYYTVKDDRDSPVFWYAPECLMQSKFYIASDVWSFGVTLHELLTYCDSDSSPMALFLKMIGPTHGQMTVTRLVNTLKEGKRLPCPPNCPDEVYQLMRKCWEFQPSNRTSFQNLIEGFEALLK
# AXL, sequence (P30530 whole entry): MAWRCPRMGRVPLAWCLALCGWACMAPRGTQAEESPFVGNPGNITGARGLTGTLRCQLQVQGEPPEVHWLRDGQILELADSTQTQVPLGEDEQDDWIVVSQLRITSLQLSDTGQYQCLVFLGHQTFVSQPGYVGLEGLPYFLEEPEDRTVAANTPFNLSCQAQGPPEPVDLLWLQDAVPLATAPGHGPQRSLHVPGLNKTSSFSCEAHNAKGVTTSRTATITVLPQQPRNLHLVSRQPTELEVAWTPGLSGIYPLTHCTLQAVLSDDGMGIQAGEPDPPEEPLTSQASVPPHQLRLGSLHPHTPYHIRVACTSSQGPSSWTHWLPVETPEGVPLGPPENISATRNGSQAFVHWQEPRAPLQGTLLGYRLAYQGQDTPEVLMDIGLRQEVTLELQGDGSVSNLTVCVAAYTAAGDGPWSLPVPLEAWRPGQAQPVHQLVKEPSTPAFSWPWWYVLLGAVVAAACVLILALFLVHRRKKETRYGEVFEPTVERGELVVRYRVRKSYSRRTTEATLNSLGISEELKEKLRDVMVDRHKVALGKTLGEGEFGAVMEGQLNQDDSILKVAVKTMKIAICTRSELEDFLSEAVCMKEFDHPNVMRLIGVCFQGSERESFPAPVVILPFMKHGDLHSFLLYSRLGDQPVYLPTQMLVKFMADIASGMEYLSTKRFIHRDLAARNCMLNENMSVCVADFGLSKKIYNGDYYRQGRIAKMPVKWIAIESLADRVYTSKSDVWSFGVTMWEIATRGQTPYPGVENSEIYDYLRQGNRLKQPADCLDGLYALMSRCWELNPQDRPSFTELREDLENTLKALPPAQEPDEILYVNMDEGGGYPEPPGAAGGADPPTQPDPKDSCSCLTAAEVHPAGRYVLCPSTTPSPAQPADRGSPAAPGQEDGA
# JAK2(JH1domain-catalytic), sequence (O60674 whole entry): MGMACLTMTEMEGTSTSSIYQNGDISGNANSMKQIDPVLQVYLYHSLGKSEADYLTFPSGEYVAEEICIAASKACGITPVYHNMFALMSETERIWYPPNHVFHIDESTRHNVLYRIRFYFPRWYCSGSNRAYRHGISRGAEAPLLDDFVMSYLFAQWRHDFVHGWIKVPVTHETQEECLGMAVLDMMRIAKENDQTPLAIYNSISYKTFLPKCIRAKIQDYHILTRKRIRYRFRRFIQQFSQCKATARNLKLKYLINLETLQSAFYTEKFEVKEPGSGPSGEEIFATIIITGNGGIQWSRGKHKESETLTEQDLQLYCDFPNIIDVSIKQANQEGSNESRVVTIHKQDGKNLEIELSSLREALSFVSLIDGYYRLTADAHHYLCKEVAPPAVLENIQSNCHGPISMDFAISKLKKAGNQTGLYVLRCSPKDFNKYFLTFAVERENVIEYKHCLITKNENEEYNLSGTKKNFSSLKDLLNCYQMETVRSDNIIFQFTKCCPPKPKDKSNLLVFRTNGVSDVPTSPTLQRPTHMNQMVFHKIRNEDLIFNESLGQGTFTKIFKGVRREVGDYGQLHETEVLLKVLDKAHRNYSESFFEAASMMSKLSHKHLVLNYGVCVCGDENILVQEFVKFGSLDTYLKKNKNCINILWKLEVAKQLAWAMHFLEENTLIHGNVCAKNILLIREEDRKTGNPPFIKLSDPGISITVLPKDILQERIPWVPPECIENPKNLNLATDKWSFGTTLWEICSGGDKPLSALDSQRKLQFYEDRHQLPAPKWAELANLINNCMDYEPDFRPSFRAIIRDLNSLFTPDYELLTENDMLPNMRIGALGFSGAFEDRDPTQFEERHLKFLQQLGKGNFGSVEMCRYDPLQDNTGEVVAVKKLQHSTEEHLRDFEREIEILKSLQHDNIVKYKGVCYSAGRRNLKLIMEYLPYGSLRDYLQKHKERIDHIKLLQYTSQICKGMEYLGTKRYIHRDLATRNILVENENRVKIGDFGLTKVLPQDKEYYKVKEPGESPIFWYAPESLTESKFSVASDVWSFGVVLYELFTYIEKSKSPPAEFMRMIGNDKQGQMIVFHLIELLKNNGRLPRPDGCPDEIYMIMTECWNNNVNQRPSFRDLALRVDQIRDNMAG
# TAOK3, sequence (Q9H2K8 whole entry): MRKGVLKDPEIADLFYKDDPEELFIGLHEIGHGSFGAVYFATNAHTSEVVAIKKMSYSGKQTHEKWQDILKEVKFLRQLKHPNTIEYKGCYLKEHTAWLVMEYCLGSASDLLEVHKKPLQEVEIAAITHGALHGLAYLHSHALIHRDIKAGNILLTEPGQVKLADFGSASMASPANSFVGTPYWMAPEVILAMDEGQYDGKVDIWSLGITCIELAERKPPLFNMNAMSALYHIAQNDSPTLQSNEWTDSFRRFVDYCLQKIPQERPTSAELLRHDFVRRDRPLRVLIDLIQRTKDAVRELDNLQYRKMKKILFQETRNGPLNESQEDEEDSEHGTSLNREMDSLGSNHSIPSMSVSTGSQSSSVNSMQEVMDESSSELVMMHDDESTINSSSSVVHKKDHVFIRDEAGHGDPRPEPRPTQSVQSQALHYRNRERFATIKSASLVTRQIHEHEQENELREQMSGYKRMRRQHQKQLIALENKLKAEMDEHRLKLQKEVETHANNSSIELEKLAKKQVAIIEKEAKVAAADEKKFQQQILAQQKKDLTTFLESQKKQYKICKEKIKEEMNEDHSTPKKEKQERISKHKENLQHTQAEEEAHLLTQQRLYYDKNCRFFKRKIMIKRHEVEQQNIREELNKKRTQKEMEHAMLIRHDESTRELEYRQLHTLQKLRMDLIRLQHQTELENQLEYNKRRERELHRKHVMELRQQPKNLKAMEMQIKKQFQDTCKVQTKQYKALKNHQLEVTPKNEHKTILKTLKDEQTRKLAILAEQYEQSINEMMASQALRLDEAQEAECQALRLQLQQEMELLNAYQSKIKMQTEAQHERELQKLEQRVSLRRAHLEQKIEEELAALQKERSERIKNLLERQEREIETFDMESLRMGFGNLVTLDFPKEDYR
# EPHA7, sequence (Q15375 whole entry): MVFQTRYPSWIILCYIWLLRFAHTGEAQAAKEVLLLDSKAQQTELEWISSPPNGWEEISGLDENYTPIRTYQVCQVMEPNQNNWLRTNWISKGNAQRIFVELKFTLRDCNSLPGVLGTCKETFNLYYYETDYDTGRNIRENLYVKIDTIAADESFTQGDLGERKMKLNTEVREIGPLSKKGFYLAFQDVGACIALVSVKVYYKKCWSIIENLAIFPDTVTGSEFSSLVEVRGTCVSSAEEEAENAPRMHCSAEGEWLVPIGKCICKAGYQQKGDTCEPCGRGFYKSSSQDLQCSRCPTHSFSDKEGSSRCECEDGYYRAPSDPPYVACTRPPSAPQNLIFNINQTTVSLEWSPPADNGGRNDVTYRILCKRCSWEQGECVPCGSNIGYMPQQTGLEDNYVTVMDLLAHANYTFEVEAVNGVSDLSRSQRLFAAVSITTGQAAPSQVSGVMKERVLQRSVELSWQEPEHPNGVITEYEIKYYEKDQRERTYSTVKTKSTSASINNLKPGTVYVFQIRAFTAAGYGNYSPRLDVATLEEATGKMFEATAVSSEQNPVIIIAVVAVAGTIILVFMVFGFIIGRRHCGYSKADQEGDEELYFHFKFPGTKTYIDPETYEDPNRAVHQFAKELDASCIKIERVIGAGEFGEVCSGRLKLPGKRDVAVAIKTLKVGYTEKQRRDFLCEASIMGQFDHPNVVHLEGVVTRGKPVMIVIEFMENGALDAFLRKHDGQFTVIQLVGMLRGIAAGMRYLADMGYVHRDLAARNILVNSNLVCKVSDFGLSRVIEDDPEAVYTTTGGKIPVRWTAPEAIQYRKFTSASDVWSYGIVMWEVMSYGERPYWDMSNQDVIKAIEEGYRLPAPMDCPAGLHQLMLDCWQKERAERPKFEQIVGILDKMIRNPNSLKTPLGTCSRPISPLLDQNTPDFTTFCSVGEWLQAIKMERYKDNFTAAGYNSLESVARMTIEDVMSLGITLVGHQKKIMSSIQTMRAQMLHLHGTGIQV
smiles,measurement,setting,value
"CNc1ncc2cc(-c3ccc(-c4cccc(C)n4)cc3Cl)c(=O)n(C[C@H]3OC[C@H](N)CO3)c2n1 [compound 6, G-5555]",Percent Control,[1],84%
same,Percent Control,[2],97%
same,Percent Control,[3],100%
same,Percent Control,[4],100%
same,Percent Control,[5],99%
same,Percent Control,[6],100%
same,Percent Control,[7],94%
same,Percent Control,[8],79%
same,Percent Control,[9],89%
same,Percent Control,[10],84%
same,Percent Control,[11],100%
same,Percent Control,[12],100%
same,Percent Control,[13],100%
same,Percent Control,[14],96%
same,Percent Control,[15],100%
same,Percent Control,[16],100%
same,Percent Control,[17],100%
same,Percent Control,[18],100%
same,Percent Control,[19],52%
same,Percent Control,[20],88%
same,Percent Control,[21],70%
same,Percent Control,[22],100%
same,Percent Control,[23],100%
same,Percent Control,[24],100%
same,Percent Control,[25],100%
same,Percent Control,[26],100%
same,Percent Control,[27],100%
same,Percent Control,[28],100%
same,Percent Control,[29],91%
